The text below walks through data of publication PMC10892719 (Pharmaceutics, 2024).

Structures are written as SMILES. Entries after “also recorded” stand apart in the source; their conditions may differ.

For data set [1], the target named is T1, equine butyrylcholinesterase (eqBChE) (Equus caballus, UniProt P81908).
T1 construct: purchased Sigma-Aldrich (Steinheim, Germany)
Nature of the data set: BChE inhibition, adapted Ellman method. The note with it: for SI (selectivity index): IC50 (AChE)/IC50 (BChE); for IC50: eqBChE, mean of two independent experiments ± SD, read-out: BChE Inhib IC50. The class given is biochemical. The protocol: (§1) The enzyme inhibition of electric eel acetylcholinesterase (eeAChE) and equine butyrylcholinesterase (eqBChE) by our compounds was evaluated through an adaptation of Elmman´s method using reagents from Sigma-Aldrich (Steinheim, Germany). Stock solutions of each compound (1 mg) in MeOH (1 mL) were prepared and then working solutions for each ligand were obtained by the corresponding dilution of the stock solutions. A control measurement with 5 replicates (without ligand) and a calibration curve of 5 points with 3 replicates per point was performed. The preparation of each solution involved fixed volumes of 4-(2-hydroxyethyl)-1-piperazine-ethanesulfonic acid (HEPES) and cholinesterase (eeAChE or eqBChE) with different volumes of ligand solution, and it was left to rest for 15 min immediately after adding the cholinesterase. A blank solution containing HEPES and MeOH was also prepared at the same time. […] The slope for each calibration point (absorbance versus reaction time) was determined and the inhibition for each compound was calculated by using the following equation: %Inhibition=100−(vi/v0×100) where vi is the reaction rate (slope) for each point of the calibrate with ligand and v0 is the initial reaction rate (slope) for the control point (without ligand). […] Experiments were performed twice for each compound.

Data set [2] has as its target T2, Aβ1-42 (Homo sapiens, UniProt P05067).
T2 construct: purchased Genecust, Boynes, France
The data set can be described thus: Inhibition of Aβ1-42 self-aggregation, thioflavin T fluorescence. Type of data set: biochemical. The note with it: Cinhibitor = 20 µM, Aβ1-42 40 µM, 37 °C, 24 h, read-out: Aβ42 Self-Aggreg. Inhib. The protocol: The Aβ peptide (Genecust, Boynes, France) was treated with 1,1,1,3,3,3-hexafluoropropan-2-ol (HFIP, Aldrich, Steinheim, Germany) and dissolved in a CH3CN/Na2CO3 (300 µM)/NaOH (250 µM) ([…], v/v/v) mixture in order to have a stable stock solution of Aβ1-42 with concentration 500 µM.
Solutions of the assayed compounds (0.5 mg/mL) were firstly prepared in 60% (v/v) DMSO/MeOH medium and then diluted in phosphate buffer (0.215 M, pH 8.0) to a concentration of 120 µM. The Aβ1-42 aggregation inhibition assays were performed according to a reported method based on the fluorescence emission of thioflavin T (ThT, Aldrich Steinheim, Germany). Therefore, Aβ1-42 (40 µM) was incubated at 37 °C for 24 h in phosphate buffer and in the presence or absence of each ligand (20 µM). Then, the samples were added to a 96-well plate with 180 µL of 5 µM ThT in 50 mM glycine-NaOH (pH 8.5) buffer. Blank samples were identically prepared for each concentration but in the absence of the peptide. The ThT fluorescence was measured at 445 nm (excitation) and 485 nm (emission). The percent of aggregation inhibition was calculated by the following equation:I% = 100 − (IFi/IF0 × 100), in which IFi and IF0 are the fluorescence intensities, in the presence and the absence of the tested compound, subtracted from the fluorescence intensities due to the respective blanks. The reported values were obtained as the mean ± SEM of two different experiments performed in duplicate.
The inhibitory capacity of the RIV-IND hybrids towards Aβ42 self-aggregation was evaluated in vitro by molecular fluorescence spectroscopy through the thioflavin T (ThT) method. In fact, since there is an increase in the absorbance and emission of ThT when it binds to amyloid fibrils, it is possible to determine the percent of Aβ42 self-aggregation (see Table 1). The assays were performed in the presence of 20 µM of inhibitor to overcome the solubility limitations of some compounds in the phosphate buffer aqueous medium.

The test system of data set [3] is SH-SY5Y cells. The data set can be described thus: Cell viability dose-response screening, MTT. The class given is cell-based, human. The settings on record: 24 h, screening 0.5 µM to 20 µM. The protocol:
(§2) Cell viability, following treatment with the compounds, was determined using the colorimetric MTT (3-(4,5-dimethylthiazol-2-yl)-2,5-diphenyltetrazolium bromide) assay. The tested compounds (5a1-3, 5b1-3, 5c1-3) were dissolved in DMSO to produce stock solutions of 25 mM and stored at −20 °C. A concentration screening was performed for 0.5 µM to 20 µM final concentrations to choose the highest nontoxic concentration. SH-SY5Y human neuroblastoma cell line (ATCC-CRL-2266) was cultured in Dulbecco’s modified Eagle’s medium (DMEM) (Gibco-Invitrogen, Life Technologies Ltd., Waltham, MA, USA) with heat-inactivated fetal calf serum (10%), penicillin (50 U/mL) and streptomycin (50 µg/mL) at 37 °C with 5% CO2. Cells were plated at 0.15 × 10^6 cells/mL one day prior to the start of the experiment. The cells were then incubated with the appropriate concentration of the compounds for 24 h. After the incubation period, the cells were washed once with PBS and incubated with 200 µL MTT (0.5 mg/mL) for 2 h at 37 °C with 5% CO2. During this period, cellular dehydrogenase successfully metabolized MTT into formazan, which was then solubilized using 200 µL of 0.04 M HCl/isopropanol. Absorbance was measured at 570 nm.
The new RIV-IND hybrids were tested to determine their protective role in the toxicity induced by either Aβ1-42 peptides or iron/ascorbate. SH-SY5Y cells were incubated with a set of concentrations of each of the compounds and a dose–response curve was constructed to select the highest nontoxic concentration.
Figure 3 Dose–response screening of RIV-IND compounds 5a1-3, 5b1-3 and 5c1-3 measured by MTT reduction ability on SH-SY5Y cells treated with different concentrations of the compounds for 24 h. Results are expressed relatively to untreated cells, with the mean ± standard error of the mean (SEM) derived from three independent experiments. * p < 0.05; ** p < 0.01; *** p < 0.001 compared to untreated cells. (The dot line indicates 100% cellular viability).

Data set [4] in a line: DPPH free radical scavenging (antioxidant) assay. The note with it: read-out: Antioxidant Activity EC50; DPPH method, mean of three independent experiments.
Procedure: The radical scavenging activity (antioxidant capacity) of the herein-developed RIV-IND hybrids was determined by the DPPH method [33]. Working solutions of the compounds in 10% DMSO/MeOH (, HoneywellSeelze, Germany) medium were used to prepare 5 methanolic solutions (5 points, 3 replicates) containing DPPH (Sigma-Aldrich, Steinheim, Germany) and different concentrations of compound up to 3.5 mL total volume. […] The respective antioxidant activity (%AA) was calculated using the following equation: %AA=ADPPH−Aligand/ADPPH×100
The reported results were obtained as the mean values of three independent experiments.
The new RIV-IND compounds were also screened for their radical scavenging activity (EC50), according to the 2,2-diphenyl-1-picrylhydrazyl (DPPH) free radical method.
For data set [5], the target named is T3, electric eel acetylcholinesterase (eeAChE) (Electrophorus electricus, UniProt O42275).
T3 construct: purchased Sigma-Aldrich (Steinheim, Germany)
T3 sequence (O42275 24-633): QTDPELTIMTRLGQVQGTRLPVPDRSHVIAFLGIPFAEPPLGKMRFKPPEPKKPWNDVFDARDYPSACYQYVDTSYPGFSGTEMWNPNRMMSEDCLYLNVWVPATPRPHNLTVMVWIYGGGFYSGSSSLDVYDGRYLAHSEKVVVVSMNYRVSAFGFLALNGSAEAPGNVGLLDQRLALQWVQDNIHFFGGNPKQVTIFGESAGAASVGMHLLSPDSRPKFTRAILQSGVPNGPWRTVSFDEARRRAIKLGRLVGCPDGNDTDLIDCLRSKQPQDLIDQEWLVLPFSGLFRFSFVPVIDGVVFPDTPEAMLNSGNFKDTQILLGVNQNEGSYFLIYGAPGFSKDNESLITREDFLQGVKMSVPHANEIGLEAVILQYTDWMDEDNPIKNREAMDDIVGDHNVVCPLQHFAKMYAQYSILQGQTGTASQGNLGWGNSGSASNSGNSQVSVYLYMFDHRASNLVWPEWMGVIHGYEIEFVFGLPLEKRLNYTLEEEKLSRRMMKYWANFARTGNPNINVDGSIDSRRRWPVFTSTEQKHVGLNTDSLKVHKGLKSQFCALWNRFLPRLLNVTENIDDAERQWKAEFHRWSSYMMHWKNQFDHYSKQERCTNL
Nature of the data set: AChE inhibition, adapted Ellman method. Type of data set: biochemical. The note with it: mean of two independent experiments ± SD, read-out: AChE Inhib IC50. The protocol: as §1

For data set [6], the system named is SH-SY5Y cells. Nature of the data set: Neuroprotection against Aβ1-42-induced toxicity, MTT. The class given is cell-based, human. The settings on record: Aβ1-42 1 µM, 24 h, optimized concentration of each compound. On the procedure: as §2
To test whether the compounds have a protective effect against toxicity induced by Aβ1-42 or iron/ascorbate, the cells were pre-incubated for 1 h with each compound, followed by the addition of Aβ1-42 or iron/ascorbate and incubation for an additional 24 h. Aβ1-42 (Bachem, Torrance, CA, USA) was prepared in sterile water to produce a stock solution of 443 µM and added to the cells at a final concentration of 1 µM. Ferrous sulfate and L-ascorbic acid (Sigma Chemical Co, St. Louis, MO, USA), prepared in sterile water, were added to the medium together at a final concentration of 5 mM and 2.5 mM, respectively. For this assay, the optimal concentration of each compound was used to prevent cellular demise induced by Aβ1-42 or iron/ascorbate. Compound 5a1 was added to the medium at a 1 µM final concentration; compounds 5a2, 5a3, 5b1, 5b2 and 5c2 were added to the medium at a 2.5 µM final concentration; compounds 5c1 and 5c3 were added to the medium at a 5 µM final concentration; and compound 5b3 was added to the medium at a 10 µM final concentration. […] Controls were employed for each plate using untreated cells and Aβ1-42 or iron/ascorbate only. Cell reduction ability was normalized to the untreated condition. All data are expressed as mean ± SEM of at least three independent experiments performed in duplicate. Statistical analyses were performed for normality assessment using Shapiro–Wilk’s test followed by the Kruskal–Wallis test considering that normality was not verified. Post hoc analysis was performed using uncorrected Dunn’s test. A p value < 0.05 was considered statistically significant.
Figure 4 Neuroprotective effect of RIV-IND compounds against cellular toxicity induced by Aβ1-42 measured by MTT reduction ability on SH-SY5Y cells pretreated with […] for one hour, followed by a 24 h incubation with the optimized concentration of each compound. Results are expressed relatively to untreated cells, with the mean ± standard error of the mean (SEM) derived from three to seven independent experiments. * p < 0.05; ** p < 0.01; *** p < 0.001; **** p < 0.0001 compared to untreated cells. # p < 0.05 compared to Aβ1-42-treated cells. (The dot line indicates the decrease in cellular viability induced by Aβ).

T1 sequence (P81908 whole entry): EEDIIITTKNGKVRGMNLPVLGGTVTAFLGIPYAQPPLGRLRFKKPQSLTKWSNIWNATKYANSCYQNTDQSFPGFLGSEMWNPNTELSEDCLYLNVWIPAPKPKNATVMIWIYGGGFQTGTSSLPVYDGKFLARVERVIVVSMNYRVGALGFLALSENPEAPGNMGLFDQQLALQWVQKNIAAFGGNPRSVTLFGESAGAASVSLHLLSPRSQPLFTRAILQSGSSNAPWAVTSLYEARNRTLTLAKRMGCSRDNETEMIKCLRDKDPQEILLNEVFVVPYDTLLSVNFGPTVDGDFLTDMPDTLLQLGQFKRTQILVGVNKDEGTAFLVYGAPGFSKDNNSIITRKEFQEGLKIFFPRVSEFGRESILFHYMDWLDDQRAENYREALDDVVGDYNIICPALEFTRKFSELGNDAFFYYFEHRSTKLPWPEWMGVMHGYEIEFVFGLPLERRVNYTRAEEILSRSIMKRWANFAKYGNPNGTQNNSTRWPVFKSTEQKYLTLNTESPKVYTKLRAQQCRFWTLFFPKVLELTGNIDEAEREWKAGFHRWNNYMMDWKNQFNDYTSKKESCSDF
T2 sequence (P05067 672-713 limits assumed): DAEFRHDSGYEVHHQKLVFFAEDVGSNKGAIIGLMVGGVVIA

On to `CCN(C)C(=O)Oc1cccc(CCNC(=O)c2cc3ccccc3[nH]2)c1` [Compound 5c1, 3-(2-(1H-indole-2-carboxamido)ethyl)phenyl ethylmethylcarbamate], for which the “SI (selectivity index)” value in data set [1] came to 2.8. Moreover, the IC50 was found to be 14.5 ± 0.7 µM in data set [1] and 40 ± 2 µM in data set [5]. Moreover, the inhibition at 20 µM in data set [2] was found to be 25.6%. The same compound returned a highest nontoxic concentration in data set [3] of 5 µM. Further, in data set [4], the EC50 is greater than 2000 µM.
Regarding `CCN(C)C(=O)Oc1cccc(CCNC(=O)c2cc3cccc(O)c3[nH]2)c1` [Compound 5c3, 3-(2-(7-Hydroxy-1H-indole-2-carboxamido)ethyl)phenyl ethyl(methyl)carbamate], in data set [6], the “neuroprotective effect against toxicity induced by Aβ1-42” value (“neuroprotective effect” for short) is reported as “also present neuroprotection”. Further, in data set [1], the “SI (selectivity index)” value is 1.8 and the IC50 worked out at 14.9 ± 0.7 µM. In addition, the inhibition at 20 µM in data set [2] turned out to be 55.5%. Besides, in data set [3], the highest nontoxic concentration is reported as 5 µM. Further, the EC50 in data set [4] is 20.7 ± 0.4 µM. The IC50 in data set [5] amounted to 26.8 ± 0.3 µM.
As to `CCN(C)C(=O)Oc1cccc(CCNC(=O)c2cc3cc(O)ccc3[nH]2)c1` [Compound 5c2, 3-(2-(5-Hydroxy-1H-indole-2-carboxamido)ethyl)phenyl ethyl(methyl)carbamate], the “neuroprotective effect” value in data set [6] was “can prevent the toxicity induced by Aβ1-42 to cells; also recorded: able to rescue Aβ1-42-induced toxicity to levels that were not significantly different from untreated cells; also recorded: able to prevent the toxicity induced by Aβ1-42 to neuroblastoma cells (SH-SY5Y)”. Moreover, in data set [1], the “SI (selectivity index)” value amounted to 3.8 and the IC50 was found to be 15.2 ± 0.4 µM. Moreover, the inhibition at 20 µM in data set [2] amounted to 49.9%. In data set [3], this compound yielded a highest nontoxic concentration of 2.5 µM. In data set [4], the EC50 was 8.5 ± 0.6 µM. Besides, the IC50 in data set [5] was found to be 58.6 ± 0.3 µM.
Turning to `CCN(C)C(=O)Oc1cccc(NC(=O)c2cc3cc(O)ccc3[nH]2)c1` [Compound 5a2, 3-(5-Hydroxy-1H-indole-2-carboxamido)phenyl ethyl(methyl)carbamate], the “SI (selectivity index)” value in data set [1] is 64.0. In addition, the results for the IC50 in data set [1] and in data set [5] were 3.22 ± 0.02 µM and 206 ± 4 µM, respectively. For the same compound, the inhibition at 20 µM in data set [2] stood at 25%. Further, the highest nontoxic concentration in data set [3] is on record as 2.5 µM. For the same compound, the EC50 in data set [4] is 8.4 ± 0.2 µM.
On to `CCN(C)C(=O)Oc1cccc(CNC(=O)c2cc3cc(O)ccc3[nH]2)c1` [Compound 5b2, 3-((5-Hydroxy-1H-indole-2-carboxamido)methyl)phenyl-ethyl(methyl)carbamate], for which, in data set [6], the “neuroprotective effect” value was “can prevent the toxicity induced by Aβ1-42 to cells; also recorded: able to rescue Aβ1-42-induced toxicity to levels that were not significantly different from untreated cells; also recorded: able to prevent the toxicity induced by Aβ1-42 to neuroblastoma cells (SH-SY5Y)”. In addition, in data set [1], the “SI (selectivity index)” value came to 3.0 and the IC50 was found to be 27.1 ± 0.1 µM. In addition, in data set [2], the inhibition at 20 µM was determined as 29.4%. Besides, the highest nontoxic concentration in data set [3] is recorded as 2.5 µM. In addition, the EC50 in data set [4] was found to be 7.8 ± 0.5 µM. Besides, the IC50 in data set [5] amounted to 80 ± 2 µM.
On to `Cc1c(O)c(=O)ccn1C` [Deferiprone, deferiprone, reference compound], for which the EC50 in data set [4] was 148 ± 3 µM.
Same read-out and setting: for `Cc1c(C)c2c(c(C)c1O)CCC(C)(C(=O)O)O2` (stereo not shown) [Trolox, reference compound] the value was 13.8 ± 0.2 µM.
For the compound `CCN(C)C(=O)Oc1cccc(NC(=O)c2cc3ccccc3[nH]2)c1` [Compound 5a1], in data set [1], the “SI (selectivity index)” value came out at 6.0 and the IC50 was found to be 29.9 ± 0.4 µM. For the same compound, the inhibition at 20 µM in data set [2] came to 26.9%. The compound further had a highest nontoxic concentration in data set [3] of 1 µM. In data set [4], the EC50 is greater than 2000 µM.
